According to US7589089B2, “Inhibitors for GlyT-1” (Hoffmann-La Roche Inc., priority 2006, dated 2009):

target: T1, mGlyT-1b (Mus musculus, UniProt P28571); assay: Glycine Uptake Inhibition Assay (mGlyT-1b); assay type: cell-based
T1 construct: host or cells: Flp-in-CHO
T1 sequence (P28571 1-651 isoform P28571-2): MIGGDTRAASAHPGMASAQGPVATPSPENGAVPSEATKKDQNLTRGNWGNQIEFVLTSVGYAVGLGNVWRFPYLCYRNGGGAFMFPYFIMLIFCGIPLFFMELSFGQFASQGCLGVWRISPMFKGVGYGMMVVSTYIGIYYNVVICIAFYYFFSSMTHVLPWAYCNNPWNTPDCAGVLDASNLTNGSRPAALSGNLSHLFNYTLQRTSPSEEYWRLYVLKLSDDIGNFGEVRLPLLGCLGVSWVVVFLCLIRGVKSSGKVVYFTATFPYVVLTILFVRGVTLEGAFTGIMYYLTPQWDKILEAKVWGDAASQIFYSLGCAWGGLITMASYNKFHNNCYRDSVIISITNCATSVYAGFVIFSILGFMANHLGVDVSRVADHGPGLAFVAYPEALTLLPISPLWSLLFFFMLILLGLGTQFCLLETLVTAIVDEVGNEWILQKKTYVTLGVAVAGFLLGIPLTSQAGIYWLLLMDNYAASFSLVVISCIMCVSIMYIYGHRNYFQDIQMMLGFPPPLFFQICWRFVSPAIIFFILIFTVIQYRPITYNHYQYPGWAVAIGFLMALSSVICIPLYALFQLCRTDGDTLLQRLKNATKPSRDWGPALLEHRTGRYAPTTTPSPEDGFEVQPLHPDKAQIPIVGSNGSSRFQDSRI
Method: DMEM complete medium: Nutrient mixture F-12 (Gibco Life-technologies), fetal bovine serum (FBS) 5%, (Gibco life technologies), Penicillin/Streptomycin 1% (Gibco life technologies), Hygromycin 0.6 mg/ml (Gibco life technologies), Glutamine 1 mM Gibco life technologies)
Uptake buffer (UB): 150 mM NaCl, 10 mM Hepes-Tris, pH 7.4, 1 mM CaCl2, 2.5 mM KCl, 2.5 mM MgSO4, 10 mM (+) D-glucose.
Flp-in™-CHO (Invitrogen Cat n° R758-07) cells stably transfected with mGlyT1b cDNA.
Glycine Uptake Inhibition Assay (mGlyT-1b)
On day 1 mammalian cells, (Flp-in™-CHO), transfected with mGlyT-1b cDNA, were plated at the density of 40,000 cells/well in complete F-12 medium, without hygromycin in 96-well culture plates. On day 2, the medium was aspirated and the cells were washed twice with uptake buffer (UB). The cells were then incubated for 20 min at 22° C. with either (i) no potential competitor, (ii) 10 mM non-radioactive glycine, (iii) a concentration of a potential inhibitor. A range of concentrations of the potential inhibitor was used to generate data for calculating the concentration of inhibitor resulting in 50% of the effect (e.g. IC50, the concentration of the competitor inhibiting glycine uptake of 50%). A solution was then immediately added containing [^3H]-glycine 60 nM (11-16 Ci/mmol) and 25 μM non-radioactive glycine. The plates were incubated with gentle shaking and the reaction was stopped by aspiration of the mixture and washing (three times) with ice-cold UB. The cells were lysed with scintillation liquid, shaken 3 hours and the radioactivity in the cells was counted using a scintillation counter.

IC50	Compound
0.199 µM	N#Cc1ccc(C(=O)N(CC(=O)Nc2ccc(F)c(Cl)c2)Cc2c(F)cccc2F)cc1 [Example 88, N-[(3-Chloro-4-fluoro-phenylcarbamoyl)-methyl]-4-cyano-N-(2,6-difluoro-benzyl)-benzamide]
0.078 µM	O=C(CN(Cc1cccc(F)c1F)C(=O)c1ccc(OC(F)(F)F)cc1)Nc1ccc(F)c(Cl)c1 [Example 83, N-[(3-Chloro-4-fluoro-phenylcarbamoyl)-methyl]-N-(2,3-difluoro-benzyl)-4-trifluoromethoxy-benzamide]
0.15 µM	O=C(CN(C(=O)c1cc2ccccc2s1)c1ccccc1)Nc1ccc(Cl)c(Cl)c1 [Example 113, Benzo[b]thiophene-2-carboxylic acid [(3,4-dichloro-phenylcarbamoyl)-methyl]-phenyl-amide]
0.182 µM	COc1ccc(C(=O)N(CC(=O)Nc2ccc(F)c(Cl)c2)c2ccccc2)cc1 [Example 108, N-[(3-Chloro-4-fluoro-phenylcarbamoyl)-methyl]-4-methoxy-N-phenyl-benzamide]

Second part, the compound before the results:

Compound	IC50
O=C(CN(C(=O)c1ccc(C(F)(F)F)nc1)c1ccccc1)Nc1ccc(Cl)c(Cl)c1 [Example 37, N-[(3,4-Dichloro-phenylcarbamoyl)-methyl]-N-phenyl-6-trifluoromethyl-nicotinamide]	0.154 µM
COc1ccc(C(=O)N(CC(=O)Nc2cccc(C(F)(F)F)c2)c2ccccc2)cc1 [Example 27, 4-Methoxy-N-phenyl-N-[(3-trifluoromethyl-phenylcarbamoyl)-methyl]-benzamide]	0.148 µM
O=C(CN(Cc1ccccc1Cl)C(=O)c1ccc(F)cc1)Nc1ccc(F)c(Cl)c1 [Example 76, N-(2-Chloro-benzyl)-N-[(3-chloro-4-fluoro-phenylcarbamoyl)-methyl]-4-fluoro-benzamide]	0.159 µM
COc1ccc(C(=O)N(CC(=O)Nc2cccc(Cl)c2)Cc2cc(Cl)cc(Cl)c2)cc1 [Example 12, N-[(3-Chloro-phenylcarbamoyl)-methyl]-N-(3,5-dichloro-benzyl)-4-methoxy-benzamide]	0.243 µM
O=C(CN(Cc1ccccc1Cl)C(=O)c1ccc(OC(F)(F)F)cc1)Nc1ccc(F)c(Cl)c1 [Example 75, N-(2-Chloro-benzyl)-N-[(3-chloro-4-fluoro-phenylcarbamoyl)-methyl]-4-trifluoromethoxy-benzamide]	0.259 µM
